Test results reported in US7893090B2, “N-aroyl cyclic amine derivatives as orexin receptor antagonists” (SmithKline Beecham Limited, priority 2001, dated 2011).

Assays:
[1] = central administration, freely-feeding rats, 4 hour time period; cited from earlier work
[2] = Rat sleep/EEG studies after central administration; assay type: in vivo; conditions: central administration at the onset of the normal sleep period; at the expense of paradoxical sleep and slow wave sleep 2
From the text: Therefore antagonists of its receptor may be useful in the treatment of sleep disorders including insomnia.

orexin-A: ligand for the orexin-1 receptor, an agonist of the orexin receptors; 33-residue peptide, SEQ ID NO:1 (EPLPDCCRQKTCSCRLYELLHGAGNHAAGILTLNH; Homo sapien)
increase in food intake over control rats receiving vehicle [1]: approximately four-fold
arousal in rat sleep/EEG [2]: dose-related increase in arousal
